In patent US20140107226A1, “METHODS FOR ENHANCING STABILITY OF POLYORTHOESTERS AND THEIR FORMULATIONS” (A.P. PHARMA, INC., priority 2008, published 2014) one finds clearance of granisetron data, which are given here for one molecule.

The nature of the data set: Granisetron in human plasma after APF530 (clinical pharmacokinetics). The note with it: chemo-patients, human trials (FIGS. 3 and 4). In kind it is in vivo.

On to `CN1C2CCCC1CC(NC(=O)c1nn(C)c3ccccc13)C2` (stereo not shown) [granisetron], for which the clearance of granisetron result is listed as “impaired clearance”.
